Test results: patent US9758788B2, “Mutagenesis of plants for overproduction of selective estrogen receptor modulators” (Naprogenix, Inc., priority 2014, dated 2017)

Legend:
Non-transgenic 1°HRs = assay: Toxicity of DA-ergic toxins, trypan blue staining, non-transgenic hairy roots; format: cell-based, Lobelia cardinalis; settings: 6-OHDA 50 uM, MPTP 100 μM, MPP+ 100 μM
Excerpt: (§1) Trypan blue staining for toxicity was quantified using ImageJ software. […] Since MPTP is converted to the its cytotoxic metabolite, MPP+, by oxidases, biosynthesis of oxidase inhibitors would also confer a survival advantage if MPTP were chosen as a selection agent (monoamine oxidase inhibitors prevent MPTP toxicity in SH-SY5Y neuroblastoma cells).

transgenic hDAT 1°HRs = assay: Toxicity of DA-ergic toxins, trypan blue staining, transgenic hairy roots; settings: for cells killed by toxin exposure: 24 h, 6-OHDA 50 uM, MPTP 100 μM, MPP+ 100 μM
Excerpt: as §1

nicAChRs [1] = assay: [3H]-dopamine release from rat brain striatal slices; format: biochemical
[2] = PubChem; cited from earlier work
[3] = biological target: T1, dopamine transporter (DAT) (Rattus norvegicus, UniProt P23977); assay: [3H]-dopamine uptake into rat striatal synaptosomes; format: biochemical
T1 construct: from tissue; host or cells: rat striatal synaptosomes
T1 sequence (P23977 whole entry): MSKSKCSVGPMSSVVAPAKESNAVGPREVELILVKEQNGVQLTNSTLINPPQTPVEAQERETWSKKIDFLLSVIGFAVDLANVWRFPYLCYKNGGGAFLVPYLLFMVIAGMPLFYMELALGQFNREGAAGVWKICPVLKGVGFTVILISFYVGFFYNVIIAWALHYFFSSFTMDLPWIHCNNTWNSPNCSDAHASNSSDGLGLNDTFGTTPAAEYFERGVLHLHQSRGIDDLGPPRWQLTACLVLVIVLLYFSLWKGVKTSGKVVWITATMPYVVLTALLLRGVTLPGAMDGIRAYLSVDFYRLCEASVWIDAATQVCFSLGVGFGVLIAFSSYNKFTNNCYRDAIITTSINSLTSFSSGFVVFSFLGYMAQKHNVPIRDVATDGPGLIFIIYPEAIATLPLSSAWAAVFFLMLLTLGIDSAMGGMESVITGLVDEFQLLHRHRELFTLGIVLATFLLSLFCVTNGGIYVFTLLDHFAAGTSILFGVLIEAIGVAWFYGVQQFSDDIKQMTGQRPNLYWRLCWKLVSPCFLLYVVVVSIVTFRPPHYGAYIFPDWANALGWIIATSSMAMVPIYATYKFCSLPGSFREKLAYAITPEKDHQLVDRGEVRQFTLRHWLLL

[4] = mice; compared with lobeline; cited from earlier work
DAT = biological target: T2, DAT (Rattus norvegicus, UniProt P23977); assay: [3H]-GBR12935 specific binding to rat striatal membranes
T2 construct: from tissue; host or cells: rat striatal membranes
T2 sequence (P23977 whole entry): as above
Excerpt: (§2) The low affinity binding of lobinaline to this site on the DAT may therefore not be directly related to its functional effect.

nicAChRs [5] = assay: nicAChR binding: inhibition of [3H]-epibatidine binding; design: species or system rat; settings: non-subtype selective radioligand
Excerpt: (§3) Lobinaline was purified from a methanol extract prepared from dried aerial portions of L. cardinalis. The methanolic extract was dried under vacuum, resuspended in water, and defatted with hexane. The hexane phase was removed, and the remaining aqueous phase was partitioned with chloroform. The chloroform phase was collected, dried under vacuum, and lobinaline was purified from this fraction by acid/base extraction to yield lobinaline of ˜95% purity (single peak and spectroscopic authenticity by GC-MS). This compound was then dissolved in DMSO and used in aqueous solution to evaluate its effects on the dopamine transporter and nicAChRs, both in rat brain preparations and in the human dopaminergic neuroblastoma cell line SH-SY5Y. Antioxidant activity of lobinaline was evaluated using the dipheny picryl hydrazyl free radical scavenging assay.
(§4) It is therefore relatively non-selective, whereas almost all known plant alkaloids are relatively selective for the […] nicAChR.

alpha7 nicAChR = biological target: T3, alpha7 nicAChR (Rattus norvegicus, UniProt Q05941); assay: nicAChR binding: inhibition of [3H]-MLA binding; settings: alpha7 selective ligand
T3 construct: from tissue; host or cells: rat brain preparation (inferred)
T3 sequence (Q05941 23-502): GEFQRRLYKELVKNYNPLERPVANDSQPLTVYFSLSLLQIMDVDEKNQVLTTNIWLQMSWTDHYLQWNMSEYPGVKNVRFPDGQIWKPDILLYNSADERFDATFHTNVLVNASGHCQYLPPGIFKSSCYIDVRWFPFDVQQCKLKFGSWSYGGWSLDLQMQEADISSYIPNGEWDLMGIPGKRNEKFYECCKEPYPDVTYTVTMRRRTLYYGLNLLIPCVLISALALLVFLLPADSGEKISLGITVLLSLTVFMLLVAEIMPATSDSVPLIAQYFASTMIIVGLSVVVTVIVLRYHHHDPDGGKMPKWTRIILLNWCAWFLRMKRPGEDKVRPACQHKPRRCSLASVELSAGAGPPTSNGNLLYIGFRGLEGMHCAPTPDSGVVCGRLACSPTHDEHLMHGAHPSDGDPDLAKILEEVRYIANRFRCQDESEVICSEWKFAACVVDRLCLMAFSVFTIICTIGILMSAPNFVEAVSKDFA
Excerpt: as §3, §4

SH-SY5Y cells = assay: MPP+ toxicity on SH-SY5Y cells; format: cell-based, human
Excerpt: as §3, §2

[6] = DPPH free radical scavenging assay; settings: read-out: IC50, inhibition of DPPH free radical activity
Excerpt: as §3
Stable free radical diphenyl picryl hydrazyl (DPPH) scavenging was used to assess anti-oxidant activity.
Dried methanolic extracts prepared from individual L. cardinalis hairy roots were dissolved in assay buffer and tested for (a) concentration-dependent effects on [^3H]-DA uptake into rat striatal synaptosomes, (b) quenching stable DPPH radical, as measured by absorbance at 517 nm. The results are presented as “lobinaline equivalents” calculated from pure lobinaline concentration response curves (FIG. 1). […]

NCCc1cc(O)c(O)cc1O [6-OHDA]
damage by toxin exposure (Non-transgenic 1°HRs): not significantly damaged
cells killed by toxin exposure (transgenic hDAT 1°HRs): ~50%

Fc1ccc(C(OCCN2CCN(CCCc3ccccc3)CC2)c2ccc(F)cc2)cc1 [GBR12909]
inhibition of toxin cytotoxicity (transgenic hDAT 1°HRs; toxins 6-OHDA, MPTP or MPP+): inhibited

C[n+]1ccc(-c2ccccc2)cc1 [MPP+]
damage by toxin exposure (Non-transgenic 1°HRs): not significantly damaged
cells killed by toxin exposure (transgenic hDAT 1°HRs): ~50%

CN1CC=C(c2ccccc2)CC1 [MPTP]
damage by toxin exposure (Non-transgenic 1°HRs): not significantly damaged
cells killed by toxin exposure (transgenic hDAT 1°HRs): ~50%

CN1CCCC2C(c3ccccc3)C(C3=NCCCC3)C(c3ccccc3)CC21 (stereo not shown) [lobinaline]
effect on DA release induced by nicotine (nicAChRs [1]; 10 μM nicotine): reduced the DA release
Hydrogen Bond Acceptors [2]: 2
Hydrogen Bond Donors [2]: 0
Log P [2]: 4.8
maximum inhibition of dopamine uptake [3]: 85.25%
IC50 ([3]; read-out: IC50, inhibition of [3H]-dopamine uptake): 12 µM
mammalian toxicity (LD50) [4]: low mammalian toxicity
inhibition of [3H]-GBR12935 specific binding (extent) (DAT): completely inhibited
Ki (DAT; read-out: Ki, inhibition of [3H]-GBR12935 specific binding): 89 µM
Ki (nicAChRs [5]): 17.3 µM
Ki (alpha7 nicAChR): 105 µM
concentration inhibiting the toxicity of MPP+ (SH-SY5Y cells): ~100 µM
IC50 [6]: 21.1 µM

CNC1(C)C2CCC(C2)C1(C)C (stereo not shown) [mecamylamine, reference compound]
inhibition of the initial phase of [3H] release caused by the lobinaline-containing fraction (nicAChRs [1]; 10 μM mecamylamine): almost completely inhibited

O=c1c(O)c(-c2ccc(O)c(O)c2)oc2cc(O)cc(O)c12 [quercetin, reference compound]
IC50 [6]: 11.2 µM
